Here are results for twelve compounds from patent US12310975B2, “Modulators of BCL6 proteolysis and associated methods of use” (Arvinas Operations, Inc., priority 2019, dated 2025).

SMILES strings stand for the structures. A value given as a limit tells only on which side of the number the result lay.

Test [1] deals with T1, BCL6 (Homo sapiens (Human), UniProt P41182). Put plainly: BCL6 TR-FRET assay (BCL6-Avitag-Biotin / BCoR-Cy5 peptide). The format is binding. A digest of the protocol:
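After 30 min room-temperature preincubation of compound titrations with 2 nM biotinylated BCL6-Avitag, 100 nM Cy5-labelled BCoR peptide plus 2 nM Eu-streptavidin were added and TR-FRET read 2 h later. HEPES pH 7.5/125 mM NaCl buffer with Triton X, glutathione (or DTT) and BSA.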

The target of test [2] is T1, BCL6. Put plainly: Immunofluorescence high content imaging of BCL6 degradation in T47D cells. It is filed as cell-based. The note with it: for DC50: class symbols A-D, read-out: EC50 (nM)*. A digest of the protocol:
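Read-out is BCL6 immunofluorescence quantified by high-content imaging (10×, 4 fields per well) of T47D breast cancer cells. Cells were exposed for 3 days to degrader in an 11-point, 3-fold serial dilution reaching a final top concentration of 0.1 or 1 μM.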

Where [3] appears, read: class symbols A-D, read-out: IC50 (nM)***.
Where [4] appears, read: T47D, maximum, class symbols A-C.

By EC50 is commonly meant the concentration at which the effect is half-maximal. By IC50 is commonly meant the point on the concentration scale where inhibition reaches its midpoint. As for `CNC(=O)[C@H](C)Oc1cc2cc(Nc3nc(N4CCC(CN5CCN(c6ccc7c(c6)C(=O)N([C@H]6CCC(=O)NC6=O)C7=O)CC5)CC4)ncc3Cl)ccc2n(C)c1=O` [compound 211, (S)-2-((6-((5-chloro-2-(4-((4-(2-((S)-2,6-dioxopiperidin-3-yl)-1,3-dioxoisoindolin-5-yl)piperazin-1-yl)methyl)piperidin-1-yl)pyrimidin-4-yl)amino)-1-methyl-2-oxo-1,2-dihydroquinolin-3-yl)oxy)-N-methylpropanamide], the 50% effective concentration (EC50) in test [1] is above 100 nM. Besides, the concentration for half-maximal inhibition (IC50) in test [2] is at least 100 nM.

A word on the Dmax: it is the greatest extent of degradation seen. A low value points to shallow degradation. On to `CC(=O)COc1cc2cc(Nc3nc(N4CCN(C(=O)C5CCN(c6ccc7c(c6)C(=O)N(C6CCC(=O)NC6=O)C7=O)CC5)CC4)ncc3Cl)ccc2n(C)c1=O` (stereo not drawn) [compound 163, 5-(4-(4-(5-chloro-4-((1-methyl-2-oxo-3-(2-oxopropoxy)-1,2-dihydroquinolin-6-yl)amino)pyrimidin-2-yl)piperazine-1-carbonyl)piperidin-1-yl)-2-(2,6-dioxopiperidin-3-yl)isoindoline-1,3-dione], for which the IC50 in test [1] (setting [3]) was 10 to 50 nM. For the same compound, the Dmax in test [2] (setting [4]) was 50 to 70%. For the same compound, the DC50 in test [2] was in the range of 10 to 50 nM.

Regarding `CNC(=O)COc1cc2cc(Nc3nc(N4CCC(N5CCC6(CCN(c7cccc8c7C(=O)N(C7CCC(=O)NC7=O)C8=O)CC6)C5)CC4)ncc3Cl)ccc2n(C(C)C)c1=O` (stereo not drawn) [compound 527, 2-[(6-{[5-chloro-2-(4-{8-[2-(2,6-dioxopiperidin-3-yl)-1,3-dioxo-2,3-dihydro-1H-isoindol-4-yl]-2,8-diazaspiro[4.5]decan-2-yl}piperidin-1-yl)pyrimidin-4-yl]amino}-2-oxo-1-(propan-2-yl)-1,2-dihydroquinolin-3-yl)oxy]-N-methylacetamide], the IC50 in test [1] (read-out: IC50) is below 10 nM. For the same compound, in test [2] (T47D), the greatest degradation seen (Dmax) is 50 to 70%.

`CC(=O)[C@@H](C)Oc1cc2cc(Nc3nc(N4CCC(CN5CCN(c6ccc7c(c6)C(=O)N([C@H]6CCC(=O)NC6=O)C7=O)CC5)CC4)ncc3Cl)ccc2n(C)c1=O` [compound 216, 5-(4-((1-(5-chloro-4-((1-methyl-2-oxo-3-(((R)-3-oxobutan-2-yl)oxy)-1,2-dihydroquinolin-6-yl)amino)pyrimidin-2-yl)piperidin-4-yl)methyl)piperazin-1-yl)-2-((S)-2,6-dioxopiperidin-3-yl)isoindoline-1,3-dione] returned a concentration for a half-maximal effect (EC50) in test [1] above 100 nM. In addition, in test [2], the IC50 was 10 to 50 nM. Further, the greatest degradation seen (Dmax) in test [2] (T47D) was below 50%.

Turning to `CNC(=O)COc1cc2cc(Nc3nc(N4CCC(O[C@H]5C[C@H](COc6cccc7c6C(=O)N(C6CCC(=O)NC6=O)C7=O)N(C)C5)CC4)ncc3Cl)ccc2n(C(C)C)c1=O` (stereo partly drawn) [compound 471, 2-[(6-{[5-chloro-2-(4-{[(3S,5R)-5-({[2-(2,6-dioxopiperidin-3-yl)-1,3-dioxo-2,3-dihydro-1H-isoindol-4-yl]oxy}methyl)-1-methylpyrrolidin-3-yl]oxy}piperidin-1-yl)pyrimidin-4-yl]amino}-2-oxo-1-(propan-2-yl)-1,2-dihydroquinolin-3-yl)oxy]-N-methylacetamide], the 50% inhibitory concentration (IC50) in test [1] (read-out: IC50) fell in the range of 10 to 50 nM. The compound also displayed a Dmax in test [2] (T47D) below 50%.

`CC(=O)c1cc2cc(Nc3nc(N4CCC(CN5CCN(c6ccc7c(c6)C(=O)N(C6CCC(=O)NC6=O)C7=O)CC5)CC4)ncc3Cl)ccc2n(C)c1=O` (stereo not drawn) [compound 206, 5-(4-((1-(4-((3-acetyl-1-methyl-2-oxo-1,2-dihydroquinolin-6-yl)amino)-5-chloropyrimidin-2-yl)piperidin-4-yl)methyl)piperazin-1-yl)-2-(2,6-dioxopiperidin-3-yl)isoindoline-1,3-dione]: the EC50 in test [1] is above 100 nM. The compound also registered an IC50 in test [2] of 50 to 100 nM.

On to `CNC(=O)COc1cc2cc(Nc3nc(N4CCC(OCCN5CCN(Cc6ccc(C#Cc7ccc8c(c7)CN(C7CCC(=O)NC7=O)C8=O)cc6)CC5)CC4)ncc3Cl)ccc2n(C)c1=O` (stereo not drawn) [compound 119, 2-((6-((5-chloro-2-(4-(2-(4-(4-((2-(2,6-dioxopiperidin-3-yl)-1-oxoisoindolin-5-yl)ethynyl)benzyl)piperazin-1-yl)ethoxy)piperidin-1-yl)pyrimidin-4-yl)amino)-1-methyl-2-oxo-1,2-dihydroquinolin-3-yl)oxy)-N-methylacetamide], for which the IC50 in test [1] (setting [3]) was below 10 nM. This compound also displayed a Dmax in test [2] (setting [4]) below 50%. In test [2], the DC50 is 10 to 50 nM.

In turn, `CCNC(=O)COc1cc2cc(Nc3nc(N4CCC(CN5CCN(c6ccc7c(c6)C(=O)N(C6CCC(=O)NC6=O)C7=O)CC5)CC4)ncc3Cl)ccc2n(C)c1=O` (stereo not drawn) [compound 198, 2-((6-((5-chloro-2-(4-((4-(2-(2,6-dioxopiperidin-3-yl)-1,3-dioxoisoindolin-5-yl)piperazin-1-yl)methyl)piperidin-1-yl)pyrimidin-4-yl)amino)-1-methyl-2-oxo-1,2-dihydroquinolin-3-yl)oxy)-N-ethylacetamide] gave an EC50 in test [1] above 100 nM. In test [2], this compound returned an IC50 of 50 to 100 nM. Besides, the maximal degradation (Dmax) in test [2] (T47D) fell in the range of 50 to 70%.

Regarding `CN1C(=O)CCc2cc(Nc3nc(N4CCN(CC5CCN(c6cccc7c6C(=O)N(C6CCC(=O)NC6=O)C7=O)CC5)CC4)ncc3Cl)ccc21` (stereo not drawn) [compound 378, 4-{4-[(4-{5-chloro-4-[(1-methyl-2-oxo-1,2,3,4-tetrahydroquinolin-6-yl)amino]pyrimidin-2-yl}piperazin-1-yl)methyl]piperidin-1-yl}-2-(2,6-dioxopiperidin-3-yl)-2,3-dihydro-1H-isoindole-1,3-dione], in test [1], the EC50 is above 100 nM. In test [2] (T47D cells), this compound yielded a Dmax below 50% and a half-inhibitory concentration (IC50) of at least 100 nM.

`CNC(=O)COc1cc2cc(Nc3nc(N4CCC5(CCN(CC6CCN(c7ccc8c(c7)C(=O)N(C7CCC(=O)NC7=O)C8=O)CC6)CC5)C4)ncc3Cl)ccc2n(C(C)C)c1=O` (stereo not drawn) [compound 490, 2-{[6-({5-chloro-2-[8-({1-[2-(2,6-dioxopiperidin-3-yl)-1,3-dioxo-2,3-dihydro-1H-isoindol-5-yl]piperidin-4-yl}methyl)-2,8-diazaspiro[4.5]decan-2-yl]pyrimidin-4-yl}amino)-2-oxo-1-(propan-2-yl)-1,2-dihydroquinolin-3-yl]oxy}-N-methylacetamide]: the IC50 in test [1] (read-out: IC50) was below 10 nM. Also, the maximal degradation (Dmax) in test [2] (T47D) was 50 to 70%.

For `CC(=O)COc1cc2cc(Nc3nc(N4CCC(CN(C)CC#Cc5ccc6c(c5)C(=O)N(C5CCC(=O)NC5=O)C6=O)CC4)ncc3Cl)ccc2n(C)c1=O` (stereo not drawn) [compound 176, 5-(3-(((1-(5-chloro-4-((1-methyl-2-oxo-3-(2-oxopropoxy)-1,2-dihydroquinolin-6-yl)amino)pyrimidin-2-yl)piperidin-4-yl)methyl)(methyl)amino)prop-1-yn-1-yl)-2-(2,6-dioxopiperidin-3-yl)isoindoline-1,3-dione], in test [1] (setting [3]), the 50% inhibitory concentration (IC50) was at least 100 nM. The Dmax in test [2] (setting [4]) was below 50%.

On to `CNC(=O)COc1cc2cc(Nc3nc(N4CC5CC4CN5CC4CCN(c5ccc6c(c5)C(=O)N(C5CCC(=O)NC5=O)C6=O)CC4)ncc3Cl)ccc2n(C)c1=O` (stereo not drawn) [compound 195, 2-((6-((5-chloro-2-(5-((1-(2-(2,6-dioxopiperidin-3-yl)-1,3-dioxoisoindolin-5-yl)piperidin-4-yl)methyl)-2,5-diazabicyclo [2.2.1]heptan-2-yl)pyrimidin-4-yl)amino)-1-methyl-2-oxo-1,2-dihydroquinolin-3-yl)oxy)-N-methylacetamide], for which, in test [1], the concentration giving a half-maximal response (EC50) is below 10 nM. This compound also displayed an IC50 in test [2] of 10 to 50 nM. This compound also gave a Dmax in test [2] (T47D) below 50%.
